Reference: article PMC8165693, “Sensing Enzyme Activation Heat Capacity at the Single-Molecule Level Using Gold-Nanorod-Based Optical Whispering Gallery Modes” (ACS Applied Nano Materials, 2021)

Columns and labels:
[1] = target: T1, maltose-inducible α-glucosidase (MalL) (Bacillus subtilis, UniProt O06994); assay: ensemble steady-state kinetics, colorimetric assay in solution; format: biochemical; conditions: free enzyme in solution; temperature of this constant not given
T1 construct: full-length, recombinant, purified as in earlier work
Source text: ensemble steady-state kinetics, colorimetric assay in solution on maltose-inducible α-glucosidase (MalL) | both the KM and ΔCP^‡ values are similar between WT MalL and S135C MalL

[2] = target: T2, maltose-inducible α-glucosidase (MalL) (Bacillus subtilis, UniProt O06994, S135C); assay: as above; format: biochemical; conditions: free enzyme in solution; temperature of this constant not given
T2 construct: full-length, recombinant, purified as in earlier work
T2 sequence (O06994 whole entry S135C): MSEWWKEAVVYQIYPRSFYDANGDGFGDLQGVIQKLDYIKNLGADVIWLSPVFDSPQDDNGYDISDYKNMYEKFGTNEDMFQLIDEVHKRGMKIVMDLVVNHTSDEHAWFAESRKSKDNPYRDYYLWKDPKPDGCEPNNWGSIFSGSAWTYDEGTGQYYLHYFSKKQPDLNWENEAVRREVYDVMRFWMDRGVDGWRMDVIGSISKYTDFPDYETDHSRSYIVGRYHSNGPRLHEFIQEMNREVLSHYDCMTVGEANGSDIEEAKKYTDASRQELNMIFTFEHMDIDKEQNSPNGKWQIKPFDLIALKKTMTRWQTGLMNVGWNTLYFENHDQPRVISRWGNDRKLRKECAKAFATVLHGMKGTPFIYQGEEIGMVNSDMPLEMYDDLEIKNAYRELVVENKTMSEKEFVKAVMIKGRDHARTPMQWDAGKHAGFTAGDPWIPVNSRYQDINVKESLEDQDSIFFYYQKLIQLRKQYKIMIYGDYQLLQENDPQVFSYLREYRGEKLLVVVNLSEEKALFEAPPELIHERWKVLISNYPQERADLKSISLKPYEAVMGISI

T1 sequence (O06994 whole entry): as the sequence (O06994 whole entry S135C) above, with C135S counted along it

## 4-nitrophenyl-β-D-glucopyranoside
[1]
  Km: 108 ± 34.2 µM
[2]
  Km: 141 ± 39.6 µM
